Source: patent publication US10004701B2, “Methods and compositions for treating infection” (UNIVERSITY OF ROCHESTER, priority 2012, dated 2018)
Where a name gives a salt, the structure may show the parent alone. Read-outs that look alike come from different tables or passages of the source.

Assays:
Assay in all cases: AK assay 384-well format, Prestwick library screening
[1] = system: E. faecium; assay type: cell-based, Enterococcus faecium; conditions: Enterococcus faecium, 3 h, 50 μM final drug concentration, cutoff for positive-scoring molecules 3-fold increase
[2] = system: K. pneumoniae; assay type: cell-based, Klebsiella pneumoniae; conditions: Klebsiella pneumoniae, 3 h, 50 μM final drug concentration, cutoff for positive-scoring molecules 3-fold increase
[3] = system: S. aureus strain USA300-0114; assay type: cell-based, Staphylococcus aureus; conditions: Staphylococcus aureus, USA300, 3 h, 50 μM final drug concentration, cutoff for positive-scoring molecules 3-fold increase
[4] = system: A. baumannii strain 98-37-09; assay type: cell-based, Acinetobacter baumannii; conditions: Acinetobacter baumannii, 983709, 3 h, 50 μM final drug concentration, cutoff for positive-scoring molecules 3-fold increase
[5] = system: E. coli; assay type: cell-based, Escherichia coli; conditions: Escherichia coli, 3 h, 50 μM final drug concentration, cutoff for positive-scoring molecules 3-fold increase
[6] = system: P. aeruginosa; assay type: cell-based, Pseudomonas aeruginosa; conditions: Pseudomonas aeruginosa, 3 h, 50 μM final drug concentration, cutoff for positive-scoring molecules 3-fold increase
[7] = system: E. cloacae; assay type: cell-based, Enterobacter cloacae; conditions: Enterobacter cloacae, 3 h, 50 μM final drug concentration, cutoff for positive-scoring molecules 3-fold increase
[8] = planktonic E. faecium, 384-well, read-out: AK-based Prestwick Library Screening Results: E. faecium (increase in extracellular AK activity)
[9] = planktonic K. pneumoniae, 384-well, read-out: AK-based Prestwick Library Screening Results: K. pneumoniae (increase in extracellular AK activity)
[10] = planktonic S. aureus, 384-well, read-out: AK-based Prestwick Library Screening Results: S. aureus (increase in extracellular AK activity)
[11] = planktonic A. baumannii, 384-well, read-out: AK-based Prestwick Library Screening Results: A. baumannii (increase in extracellular AK activity)
[12] = planktonic E. coli, 384-well, read-out: AK-based Prestwick Library Screening Results: E. coli (increase in extracellular AK activity)
[13] = planktonic P. aeruginosa, 384-well, read-out: AK-based Prestwick Library Screening Results: P. aeruginosa (increase in extracellular AK activity)
[14] = planktonic E. cloacae, 384-well, read-out: AK-based Prestwick Library Screening Results: E. cloacae (increase in extracellular AK activity)
[15] = 384-well format, read-out: AK-based Prestwick Library Screening Results, E. faecium (increase in extracellular AK activity)
[16] = 384-well format, read-out: AK-based Prestwick Library Screening Results, K. pneumoniae (increase in extracellular AK activity)
[17] = 384-well format, read-out: AK-based Prestwick Library Screening Results, S. aureus (increase in extracellular AK activity)
[18] = 384-well format, read-out: AK-based Prestwick Library Screening Results, A. baumannii (increase in extracellular AK activity)
[19] = 384-well format, read-out: AK-based Prestwick Library Screening Results, E. coli (increase in extracellular AK activity)
[20] = 384-well format, read-out: AK-based Prestwick Library Screening Results, P. aeruginosa (increase in extracellular AK activity)
[21] = 384-well format, read-out: AK-based Prestwick Library Screening Results, E. cloacae (increase in extracellular AK activity)

Compound	fold induction at 50 µM [1, 8]	fold induction at 50 µM [2, 9]	fold induction at 50 µM [3, 10]	fold induction at 50 µM [4, 11]	fold induction at 50 µM [5, 12]	fold induction at 50 µM [6, 13]	fold induction at 50 µM [7, 14]	fold induction at 50 µM [1, 15]	fold induction at 50 µM [2, 16]	fold induction at 50 µM [3, 17]	fold induction at 50 µM [4, 18]	fold induction at 50 µM [5, 19]	fold induction at 50 µM [6, 20]	fold induction at 50 µM [7, 21]	other results
CCCC(=O)Nc1ccc(OCC(O)CNC(C)C)c(C(C)=O)c1 (stereo not shown) [Acebutolol hydrochloride]	1.1	0.9	1.1	1.3	1.3	1.1	1.2	–	–	–	–	–	–	–	–
O=C(O)COC(=O)Cc1ccccc1Nc1c(Cl)cccc1Cl [Aceclofenac]	–	–	–	–	–	–	–	1	0.6	0.7	0.7	0.7	0.8	0.8	–
COc1ccc2c(c1)c(CC(=O)OCC(=O)O)c(C)n2C(=O)c1ccc(Cl)cc1 [Acemetacin]	1	0.9	1.1	1.1	1.2	1.1	1.3	–	–	–	–	–	–	–	–
CC(=O)CC(c1ccc([N+](=O)[O-])cc1)c1c(O)c2ccccc2oc1=O (stereo not shown) [Acenocoumarol]	–	–	–	–	–	–	–	1	0.7	0.8	0.8	0.9	0.9	0.9	–
CC(=O)Nc1ccc(O)cc1 [Acetaminophen]	–	–	–	–	–	–	–	–	–	–	–	–	–	–	fold induction at 50 µM ([1]; read-out: AK-based Prestwick Library Screening Results, E. faecium (fold increase in extracellular AK activity)): 1; fold induction at 50 µM ([2]; read-out: AK-based Prestwick Library Screening Results, K. pneumoniae (fold increase in extracellular AK activity)): 1.2; fold induction at 50 µM ([3]; read-out: AK-based Prestwick Library Screening Results, S. aureus (fold increase in extracellular AK activity)): 1.6; fold induction at 50 µM ([4]; read-out: AK-based Prestwick Library Screening Results, A. baumannii (fold increase in extracellular AK activity)): 1.5; fold induction at 50 µM ([5]; read-out: AK-based Prestwick Library Screening Results, E. coli (fold increase in extracellular AK activity)): 1.4; fold induction at 50 µM ([6]; read-out: AK-based Prestwick Library Screening Results, P. aeruginosa (fold increase in extracellular AK activity)): 1.1; fold induction at 50 µM ([7]; read-out: AK-based Prestwick Library Screening Results, E. cloacae (fold increase in extracellular AK activity)): 1.6
CC(=O)Nc1nnc(S(N)(=O)=O)s1 [Acetazolamide]	–	–	–	–	–	–	–	0.9	0.4	0.4	0.4	0.4	0.3	0.3	–
CC(=O)c1ccc(S(=O)(=O)NC(=O)NC2CCCCC2)cc1 [Acetohexamide]	0.9	0.8	1.1	1.1	1.2	1.2	1.7	–	–	–	–	–	–	–	–
